Results: the supplement of paper PMC10307832

Experiments:
Test in all cases: relative viability (nuclei count vs DMSO), 5 days (fraction); higher = more cells survive
[1] = compound: CC(C)C[C@H](NC(=O)[C@H](Cc1ccccc1)NC(=O)c1cnccn1)B(O)O [Bortezomib] + COc1cccc2cc(-c3nc([C@H]4CC[C@H](C(=O)O)CC4)n4ncnc(N)c34)[nH]c12 [OSI-027] (partner 0.5 µM)
Outline: (§1)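 For relative viability, nuclei counts in treated wells were divided by those in vehicle wells. Lung cancer cell lines had been pin-tool dosed in 1536-well plates the day after seeding and cultured for 5 days, then fixed and stained in one step (final 0.05% Triton X-100, 1% formaldehyde, 1 ug/ml Hoechst) and imaged at 4×. Doses were one drug alone or a fixed anchor-drug dose plus five library-drug doses (not always all listed) in √10 steps, and values are duplicate-plate medians.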

[2] = compound: COC1=CC(c2cc3ccccc3[nH]2)=N/C1=C\c1[nH]c(C)cc1C [Obatoclax] + CS(=O)(=O)CCNCc1ccc(-c2ccc3ncnc(Nc4ccc(OCc5cccc(F)c5)c(Cl)c4)c3c2)o1 [Lapatinib] (partner 2 µM)
Outline: as §1

[3] = compound: COC1=CC(c2cc3ccccc3[nH]2)=N/C1=C\c1[nH]c(C)cc1C [Obatoclax] + CCNC(=O)c1noc(-c2cc(C(C)C)c(O)cc2O)c1-c1ccc(CN2CCOCC2)cc1 [Luminespib] (partner 0.01 µM)
Outline: as §1

[4] = compound: COC1=CC(c2cc3ccccc3[nH]2)=N/C1=C\c1[nH]c(C)cc1C [Obatoclax] + CC(=O)Nc1cccc(-n2c(=O)n(C3CC3)c(=O)c3c(Nc4ccc(I)cc4F)n(C)c(=O)c(C)c32)c1 [Trametinib] (partner 0.02 µM)
Outline: as §1

## NCI-H1437
[1]; first compound 0.0002 µM
  relative viability: 0.86
[1]; first compound 0.000632 µM
  relative viability: 0.825
[1]; first compound 0.002 µM
  relative viability: 0.871
[1]; first compound 0.006325 µM
  relative viability: 0.138
[1]; first compound 0.02 µM
  relative viability: 0.132
[2]; first compound 0.01 µM
  relative viability: 0.755
[2]; first compound 0.03162 µM
  relative viability: 0.859
[2]; first compound 0.1 µM
  relative viability: 0.712
[2]; first compound 0.3162 µM
  relative viability: 0.707
[2]; first compound 1 µM
  relative viability: 0.433
[3]; first compound 0.01 µM
  relative viability: 1.09
[3]; first compound 0.03162 µM
  relative viability: 1.17
[3]; first compound 0.1 µM
  relative viability: 1.04
[3]; first compound 0.3162 µM
  relative viability: 0.983
[3]; first compound 1 µM
  relative viability: 0.956
[4]; first compound 0.01 µM
  relative viability: 0.512
[4]; first compound 0.03162 µM
  relative viability: 0.471
[4]; first compound 0.1 µM
  relative viability: 0.642
[4]; first compound 0.3162 µM
  relative viability: 0.498
[4]; first compound 1 µM
  relative viability: 0.359

## NCI-H1650
[1]; first compound 0.0002 µM
  relative viability: 0.657
[1]; first compound 0.000632 µM
  relative viability: 0.383
[1]; first compound 0.002 µM
  relative viability: 0.205
[1]; first compound 0.006325 µM
  relative viability: 0.132
[1]; first compound 0.02 µM
  relative viability: 0.133
[2]; first compound 0.01 µM
  relative viability: 0.849
[2]; first compound 0.03162 µM
  relative viability: 0.657
[2]; first compound 0.1 µM
  relative viability: 0.698
[2]; first compound 0.3162 µM
  relative viability: 0.418
[2]; first compound 1 µM
  relative viability: 0.302
[3]; first compound 0.01 µM
  relative viability: 0.172
[3]; first compound 0.03162 µM
  relative viability: 0.208
[3]; first compound 0.1 µM
  relative viability: 0.21
[3]; first compound 0.3162 µM
  relative viability: 0.202
[3]; first compound 1 µM
  relative viability: 0.23
[4]; first compound 0.01 µM
  relative viability: 0.763
[4]; first compound 0.03162 µM
  relative viability: 0.724
[4]; first compound 0.1 µM
  relative viability: 0.652
[4]; first compound 0.3162 µM
  relative viability: 0.36
[4]; first compound 1 µM
  relative viability: 0.303

## NCI-H1651
[1]; first compound 0.0002 µM
  relative viability: 0.661
[1]; first compound 0.000632 µM
  relative viability: 0.641
[1]; first compound 0.002 µM
  relative viability: 0.416
[1]; first compound 0.006325 µM
  relative viability: 0.109
[1]; first compound 0.02 µM
  relative viability: 0.11
[2]; first compound 0.01 µM
  relative viability: 0.645
[2]; first compound 0.03162 µM
  relative viability: 0.764
[2]; first compound 0.1 µM
  relative viability: 0.744
[2]; first compound 0.3162 µM
  relative viability: 0.664
[2]; first compound 1 µM
  relative viability: 0.341
[3]; first compound 0.01 µM
  relative viability: 0.866
[3]; first compound 0.03162 µM
  relative viability: 0.792
[3]; first compound 0.1 µM
  relative viability: 1.16
[3]; first compound 0.3162 µM
  relative viability: 0.811
[3]; first compound 1 µM
  relative viability: 0.516
[4]; first compound 0.01 µM
  relative viability: 0.847
[4]; first compound 0.03162 µM
  relative viability: 0.811
[4]; first compound 0.1 µM
  relative viability: 0.846
[4]; first compound 0.3162 µM
  relative viability: 0.845
[4]; first compound 1 µM
  relative viability: 0.836

## NCI-H1666
[1]; first compound 0.0002 µM
  relative viability: 0.802
[1]; first compound 0.000632 µM
  relative viability: 0.869
[1]; first compound 0.002 µM
  relative viability: 0.945
[1]; first compound 0.006325 µM
  relative viability: 0.43
[1]; first compound 0.02 µM
  relative viability: 0.324
[2]; first compound 0.01 µM
  relative viability: 0.868
[2]; first compound 0.03162 µM
  relative viability: 0.682
[2]; first compound 0.1 µM
  relative viability: 0.469
[2]; first compound 0.3162 µM
  relative viability: 0.273
[2]; first compound 1 µM
  relative viability: 0.291
[3]; first compound 0.01 µM
  relative viability: 1.05
[3]; first compound 0.03162 µM
  relative viability: 1.06
[3]; first compound 0.1 µM
  relative viability: 1.03
[3]; first compound 0.3162 µM
  relative viability: 0.509
[3]; first compound 1 µM
  relative viability: 0.378
[4]; first compound 0.01 µM
  relative viability: 0.753
[4]; first compound 0.03162 µM
  relative viability: 0.849
[4]; first compound 0.1 µM
  relative viability: 0.949
[4]; first compound 0.3162 µM
  relative viability: 0.805
[4]; first compound 1 µM
  relative viability: 0.637

## NCI-H1734
[1]; first compound 0.0002 µM
  relative viability: 0.635
[1]; first compound 0.000632 µM
  relative viability: 0.452
[1]; first compound 0.002 µM
  relative viability: 0.541
[1]; first compound 0.006325 µM
  relative viability: 0.164
[1]; first compound 0.02 µM
  relative viability: 0.133
[2]; first compound 0.01 µM
  relative viability: 1.04
[2]; first compound 0.03162 µM
  relative viability: 0.994
[2]; first compound 0.3162 µM
  relative viability: 0.661
[2]; first compound 1 µM
  relative viability: 0.706
[3]; first compound 0.01 µM
  relative viability: 0.201
[3]; first compound 0.03162 µM
  relative viability: 0.188
[3]; first compound 0.1 µM
  relative viability: 0.2
[3]; first compound 0.3162 µM
  relative viability: 0.187
[3]; first compound 1 µM
  relative viability: 0.18
[4]; first compound 0.01 µM
  relative viability: 0.636
[4]; first compound 0.03162 µM
  relative viability: 0.744
[4]; first compound 0.1 µM
  relative viability: 0.688
[4]; first compound 0.3162 µM
  relative viability: 0.681
[4]; first compound 1 µM
  relative viability: 0.689

## NCI-H1755
[1]; first compound 0.0002 µM
  relative viability: 0.706
[1]; first compound 0.000632 µM
  relative viability: 0.568
[1]; first compound 0.002 µM
  relative viability: 0.68
[1]; first compound 0.006325 µM
  relative viability: 0.27
[1]; first compound 0.02 µM
  relative viability: 0.228
[2]; first compound 0.01 µM
  relative viability: 1.04
[2]; first compound 0.03162 µM
  relative viability: 1.03
[2]; first compound 0.1 µM
  relative viability: 0.81
[2]; first compound 0.3162 µM
  relative viability: 1.07
[2]; first compound 1 µM
  relative viability: 0.995
[3]; first compound 0.01 µM
  relative viability: 0.416
[3]; first compound 0.03162 µM
  relative viability: 0.418
[3]; first compound 0.1 µM
  relative viability: 0.388
[3]; first compound 0.3162 µM
  relative viability: 0.714
[3]; first compound 1 µM
  relative viability: 0.713
[4]; first compound 0.01 µM
  relative viability: 0.673
[4]; first compound 0.03162 µM
  relative viability: 0.769
[4]; first compound 0.1 µM
  relative viability: 0.77
[4]; first compound 0.3162 µM
  relative viability: 0.752
[4]; first compound 1 µM
  relative viability: 0.799

## NCI-H1792
[1]; first compound 0.0002 µM
  relative viability: 0.687
[1]; first compound 0.000632 µM
  relative viability: 0.577
[1]; first compound 0.002 µM
  relative viability: 0.563
[1]; first compound 0.006325 µM
  relative viability: 0.654
[1]; first compound 0.02 µM
  relative viability: 0.497
[2]; first compound 0.01 µM
  relative viability: 0.945
[2]; first compound 0.03162 µM
  relative viability: 0.796
[2]; first compound 0.3162 µM
  relative viability: 0.869
[2]; first compound 1 µM
  relative viability: 0.885
[3]; first compound 0.01 µM
  relative viability: 0.419
[3]; first compound 0.03162 µM
  relative viability: 0.474
[3]; first compound 0.3162 µM
  relative viability: 0.376
[3]; first compound 1 µM
  relative viability: 0.394
[4]; first compound 0.01 µM
  relative viability: 0.365
[4]; first compound 0.03162 µM
  relative viability: 0.302
[4]; first compound 0.1 µM
  relative viability: 0.417
[4]; first compound 0.3162 µM
  relative viability: 0.509
[4]; first compound 1 µM
  relative viability: 0.411

## NCI-H1793
[1]; first compound 0.0002 µM
  relative viability: 0.278
[1]; first compound 0.000632 µM
  relative viability: 0.213
[1]; first compound 0.002 µM
  relative viability: 0.272
[1]; first compound 0.006325 µM
  relative viability: 0.223
[1]; first compound 0.02 µM
  relative viability: 0.145
[2]; first compound 0.01 µM
  relative viability: 0.802
[2]; first compound 0.03162 µM
  relative viability: 0.68
[2]; first compound 0.1 µM
  relative viability: 0.61
[2]; first compound 0.3162 µM
  relative viability: 0.717
[2]; first compound 1 µM
  relative viability: 0.836
[3]; first compound 0.01 µM
  relative viability: 0.119
[3]; first compound 0.03162 µM
  relative viability: 0.128
[3]; first compound 0.1 µM
  relative viability: 0.187
[3]; first compound 0.3162 µM
  relative viability: 0.183
[3]; first compound 1 µM
  relative viability: 0.192
[4]; first compound 0.01 µM
  relative viability: 0.341
[4]; first compound 0.03162 µM
  relative viability: 0.458
[4]; first compound 0.1 µM
  relative viability: 0.445
[4]; first compound 0.3162 µM
  relative viability: 0.447
[4]; first compound 1 µM
  relative viability: 0.42
